Laboratory results as given in paper PMC5218480 (PLoS ONE, 2017).

Tested on: MV-4-11 cells
Assay: Gene expression microarray analysis (Affymetrix PrimeView) and GSEA
Assay type: cell-based, human
Parameters: RFU PODN (11730768_x_at) / Fold change /veh PODN (11730768_x_at) / RFU LINC00158 (11744669_a_at) / Fold change /veh LINC00158 (11744669_a_at) / RFU DUSP10 (11751237_a_at) / Fold change /veh DUSP10 (11751237_a_at) / RFU ID3 (11757404_x_at) / Fold change /veh ID3 (11757404_x_at) / RFU PLEKHG5 (11737974_s_at) / Fold change /veh PLEKHG5 (11737974_s_at) / RFU LRRC4B (11730491_at) / Fold change /veh LRRC4B (11730491_at) / RFU GIMAP4 (11747438_a_at) / Fold change /veh GIMAP4 (11747438_a_at) / RFU KRT8 (11758183_x_at) / Fold change /veh KRT8 (11758183_x_at) / RFU CNN1 (11734310_a_at) / Fold change /veh CNN1 (11734310_a_at) / RFU VPS37D (11726825_at) / Fold change /veh VPS37D (11726825_at) / RFU C10orf10 (11716522_x_at) / Fold change /veh C10orf10 (11716522_x_at) / RFU KIR2DL2 /// KIR2DL4 /// KIR2DL5A /// KIR2DL5B /// KIR2DS1 /// KIR2DS2 /// KIR2DS3 /// KIR2DS4 /// KIR3DL3 /// KIR3DL3 /// KIR3DS1 (11738374_at) / Fold change /veh KIR2DL2 /// KIR2DL4 /// KIR2DL5A /// KIR2DL5B /// KIR2DS1 /// KIR2DS2 /// KIR2DS3 /// KIR2DS4 /// KIR3DL3 /// KIR3DL3 /// KIR3DS1 (11738374_at) / RFU C1QL1 (11718748_at) / Fold change /veh C1QL1 (11718748_at) / RFU TMPRSS4 (11747572_a_at) / Fold change /veh TMPRSS4 (11747572_a_at) / RFU HAMP (11756126_x_at) / Fold change /veh HAMP (11756126_x_at) / RFU RNFT2 (11725882_a_at) / Fold change /veh RNFT2 (11725882_a_at) / RFU NR4A2 (11747474_a_at) / Fold change /veh NR4A2 (11747474_a_at) / RFU ABCC12 (11746883_a_at) / Fold change /veh ABCC12 (11746883_a_at) / RFU TMEM136 (11760407_x_at) / Fold change /veh TMEM136 (11760407_x_at) / RFU CLDN22 /// WWC2 (11732394_at) / Fold change /veh CLDN22 /// WWC2 (11732394_at) / RFU HLA-DPB1 (11760878_x_at) / Fold change /veh HLA-DPB1 (11760878_x_at) / RFU SPINT1 (11716480_a_at) / Fold change /veh SPINT1 (11716480_a_at) / RFU GAP43 (11754022_s_at) / Fold change /veh GAP43 (11754022_s_at) / RFU A4GNT (11735810_at) / Fold change /veh A4GNT (11735810_at) / RFU PRB3 (11715151_x_at) / Fold change /veh PRB3 (11715151_x_at) / RFU TUBB4B (11761932_at) / Fold change /veh TUBB4B (11761932_at) / RFU CAPN14 (11732068_a_at) / Fold change /veh CAPN14 (11732068_a_at) / RFU TMCC2 (11721928_a_at) / Fold change /veh TMCC2 (11721928_a_at) / RFU IRGQ (11745062_a_at) / Fold change /veh IRGQ (11745062_a_at) / RFU FAM174B (11720279_a_at) / Fold change /veh FAM174B (11720279_a_at) / RFU TMPRSS4 (11748680_a_at) / Fold change /veh TMPRSS4 (11748680_a_at) / RFU FAM212B (11763350_a_at) / Fold change /veh FAM212B (11763350_a_at) / RFU PLEKHG5 (11743358_a_at) / Fold change /veh PLEKHG5 (11743358_a_at) / RFU ZSCAN30 (11745921_a_at) / Fold change /veh ZSCAN30 (11745921_a_at) / RFU CMKLR1 (11741424_a_at) / Fold change /veh CMKLR1 (11741424_a_at) / RFU LOC101060620 /// MAPK8IP1 (11723275_at) / Fold change /veh LOC101060620 /// MAPK8IP1 (11723275_at) / RFU SPTSSB (11747773_x_at) / Fold change /veh SPTSSB (11747773_x_at) / RFU PRSS12 (11739890_at) / Fold change /veh PRSS12 (11739890_at) / RFU BIN1 (11741810_x_at) / Fold change /veh BIN1 (11741810_x_at) / RFU WNT11 (11732464_a_at) / Fold change /veh WNT11 (11732464_a_at) / RFU C10orf10 (11716521_a_at) / Fold change /veh C10orf10 (11716521_a_at) / RFU C5orf56 (11738089_at) / Fold change /veh C5orf56 (11738089_at) / RFU CYB561 (11721691_x_at) / Fold change /veh CYB561 (11721691_x_at) / RFU ANKRD19P (11752326_a_at) / Fold change /veh ANKRD19P (11752326_a_at) / RFU OR2T12 /// OR2T33 /// OR2T8 (11738714_s_at) / Fold change /veh OR2T12 /// OR2T33 /// OR2T8 (11738714_s_at) / RFU VCAN (11748164_a_at) / Fold change /veh VCAN (11748164_a_at) / RFU JSRP1 (11732532_at) / Fold change /veh JSRP1 (11732532_at) / RFU KRTAP10-11 (11738290_x_at) / Fold change /veh KRTAP10-11 (11738290_x_at) / RFU MYO3A (11730013_a_at) / Fold change /veh MYO3A (11730013_a_at) / RFU EBF3 (11725865_a_at) / Fold change /veh EBF3 (11725865_a_at) / RFU CAMK2N1 (11719241_x_at) / Fold change /veh CAMK2N1 (11719241_x_at) / RFU C5orf56 (11738088_a_at) / Fold change /veh C5orf56 (11738088_a_at) / RFU OLFML3 (11715873_a_at) / Fold change /veh OLFML3 (11715873_a_at) / RFU LOC100653217 /// NTM (11731650_a_at) / Fold change /veh LOC100653217 /// NTM (11731650_a_at) / RFU MAPK11 (11762145_a_at) / Fold change /veh MAPK11 (11762145_a_at) / RFU FIZ1 (11724087_x_at) / Fold change /veh FIZ1 (11724087_x_at) / RFU OASL (11726364_x_at) / Fold change /veh OASL (11726364_x_at) / RFU SOX15 (11748057_x_at) / Fold change /veh SOX15 (11748057_x_at) / RFU CD79A (11719716_a_at) / Fold change /veh CD79A (11719716_a_at) / RFU HIST1H1D (11736915_at) / Fold change /veh HIST1H1D (11736915_at) / RFU CASKIN2 (11723855_a_at) / Fold change /veh CASKIN2 (11723855_a_at) / RFU LOC730098 (11760151_x_at) / Fold change /veh LOC730098 (11760151_x_at) / RFU OR4N2 (11742367_at) / Fold change /veh OR4N2 (11742367_at) / RFU PRRT2 (11749266_a_at) / Fold change /veh PRRT2 (11749266_a_at) / RFU SNX32 (11753110_a_at) / Fold change /veh SNX32 (11753110_a_at) / RFU CDHR5 (11726645_a_at) / Fold change /veh CDHR5 (11726645_a_at) / RFU RCAN1 (11760418_a_at) / Fold change /veh RCAN1 (11760418_a_at) / RFU FAM167A (11723789_a_at) / Fold change /veh FAM167A (11723789_a_at) / RFU FAM26E (11764081_at) / Fold change /veh FAM26E (11764081_at) / RFU ISYNA1 (11749810_s_at) / Fold change /veh ISYNA1 (11749810_s_at) / RFU ACY1 (11761880_at) / Fold change /veh ACY1 (11761880_at) / RFU 11764098_at / Fold change /veh 11764098_at / RFU SAMD14 (11745864_x_at) / Fold change /veh SAMD14 (11745864_x_at) / RFU NPB (11741838_a_at) / Fold change /veh NPB (11741838_a_at) / RFU TMPRSS6 (11731388_a_at) / Fold change /veh TMPRSS6 (11731388_a_at) / RFU KRTAP10-2 (11738614_at) / Fold change /veh KRTAP10-2 (11738614_at) / RFU ARHGAP8 /// PRR5-ARHGAP8 (11727945_x_at) / Fold change /veh ARHGAP8 /// PRR5-ARHGAP8 (11727945_x_at) / RFU KRTAP5-7 /// NADSYN1 (11734609_at) / Fold change /veh KRTAP5-7 /// NADSYN1 (11734609_at) / RFU RASL12 (11751679_a_at) / Fold change /veh RASL12 (11751679_a_at) / RFU CDKN2B (11736163_a_at) / Fold change /veh CDKN2B (11736163_a_at) / RFU PRF1 (11729649_at) / Fold change /veh PRF1 (11729649_at) / RFU, ZNF638 /// ZNF638-IT1 / Fold change vs veh, ZNF638 /// ZNF638-IT1 / RFU, PANK3 / Fold change vs veh, PANK3 / RFU, SH3YL1 / Fold change vs veh, SH3YL1 / RFU, ZEB2 / Fold change vs veh, ZEB2 / RFU, NRIP1 / Fold change vs veh, NRIP1 / RFU, PTTG1IP / Fold change vs veh, PTTG1IP / RFU, CAPN2 / Fold change vs veh, CAPN2 / RFU, MED14 / Fold change vs veh, MED14 / RFU, SNORA58 / Fold change vs veh, SNORA58 / RFU, C1orf63 / Fold change vs veh, C1orf63 / RFU, LRRFIP1 / Fold change vs veh, LRRFIP1 / RFU, NDUFAF7 / Fold change vs veh, NDUFAF7 / RFU, SLC12A2 / Fold change vs veh, SLC12A2 / RFU, IBTK / Fold change vs veh, IBTK / RFU, ESF1 / Fold change vs veh, ESF1 / Fold change vs veh, TMEM50B / RFU, TAOK1 / Fold change vs veh, TAOK1 / RFU, ACBD3 / Fold change vs veh, ACBD3 / RFU, TMA16 / Fold change vs veh, TMA16 / RFU, RWDD3 / Fold change vs veh, RWDD3 / RFU, BCAT1 / Fold change vs veh, BCAT1 / RFU, EDEM3 / Fold change vs veh, EDEM3 / RFU, TMEM33 / Fold change vs veh, TMEM33 / RFU, WDR75 / Fold change vs veh, WDR75 / RFU, AHCTF1 / Fold change vs veh, AHCTF1 / RFU, TFRC / Fold change vs veh, TFRC / RFU, ZDHHC17 / Fold change vs veh, ZDHHC17 / RFU, NOM1 / Fold change vs veh, NOM1 / RFU, ARL8B / Fold change vs veh, ARL8B / RFU, ZBTB11 / Fold change vs veh, ZBTB11 / RFU, TAMM41 / Fold change vs veh, TAMM41 / RFU, KIAA1704 /// LOC100996395 / Fold change vs veh, KIAA1704 /// LOC100996395 / RFU, ING1 / Fold change vs veh, ING1 / RFU, TRMT61B / Fold change vs veh, TRMT61B / RFU, FUBP3 / Fold change vs veh, FUBP3 / RFU, TP53 / Fold change vs veh, TP53 / RFU, TNKS2 / Fold change vs veh, TNKS2 / RFU, ZFP14 / Fold change vs veh, ZFP14 / RFU, ACTR2 / Fold change vs veh, ACTR2 / RFU, PPP3R1 / Fold change vs veh, PPP3R1 / RFU, PIK3R1 / Fold change vs veh, PIK3R1 / RFU, HNRNPA1 / Fold change vs veh, HNRNPA1 / RFU, RNF170 / Fold change vs veh, RNF170 / RFU, ZNF28 / Fold change vs veh, ZNF28 / RFU, RNGTT / Fold change vs veh, RNGTT / RFU, OGT / Fold change vs veh, OGT / RFU, BRD1 / Fold change vs veh, BRD1 / RFU, MARS / Fold change vs veh, MARS / RFU, ZNF655 / Fold change vs veh, ZNF655 / RFU, FAHD1 / Fold change vs veh, FAHD1 / RFU, BDP1 / Fold change vs veh, BDP1 / RFU, LRRCC1 / Fold change vs veh, LRRCC1 / RFU, ARID1A / Fold change vs veh, ARID1A / RFU, ZNF146 / Fold change vs veh, ZNF146 / RFU, ZNF330 / Fold change vs veh, ZNF330 / RFU, GPN3 / Fold change vs veh, GPN3 / RFU, C9orf123 / Fold change vs veh, C9orf123 / RFU, N4BP2L2 / Fold change vs veh, N4BP2L2 / RFU, ARFIP1 / Fold change vs veh, ARFIP1 / RFU, FAM179B / Fold change vs veh, FAM179B / RFU, BCL10 / Fold change vs veh, BCL10 / RFU, UHRF1BP1L / Fold change vs veh, UHRF1BP1L / RFU, BET1 / Fold change vs veh, BET1 / RFU, CNOT2 / Fold change vs veh, CNOT2 / RFU, ZNF268 / Fold change vs veh, ZNF268 / Fold change vs veh, ZNF507 / RFU, DGCR2 / Fold change vs veh, DGCR2 / RFU, WDSUB1 / Fold change vs veh, WDSUB1 / Fold change vs veh, HSP90B1 /// MIR3652 / RFU, ADSS / Fold change vs veh, ADSS / RFU, GK / Fold change vs veh, GK / RFU, ZNF148 / Fold change vs veh, ZNF148 / RFU, TAF9 / Fold change vs veh, TAF9 / RFU, SLC1A5 / Fold change vs veh, SLC1A5 / RFU, SLMO2 / Fold change vs veh, SLMO2 / RFU, ABCC4 / Fold change vs veh, ABCC4 / RFU, LOC101060439 /// RAP1B / Fold change vs veh, LOC101060439 /// RAP1B / RFU, RFX7 / Fold change vs veh, RFX7 / RFU, GTPBP10 / Fold change vs veh, GTPBP10 / RFU, CNEP1R1 / Fold change vs veh, CNEP1R1 / RFU, BIVM-ERCC5 /// ERCC5 / Fold change vs veh, BIVM-ERCC5 /// ERCC5 / RFU, ILF3 / Fold change vs veh, ILF3 / RFU 11762660_at / Fold change /veh 11762660_at / RFU VCAN (11757783_s_at) / Fold change /veh VCAN (11757783_s_at) / RFU DDX43 (11728927_at) / Fold change /veh DDX43 (11728927_at) / RFU KRT8 (11758188_x_at) / Fold change /veh KRT8 (11758188_x_at) / RFU NKD1 (11759106_at) / Fold change /veh NKD1 (11759106_at) / RFU SRD5A1 (11742802_a_at) / Fold change /veh SRD5A1 (11742802_a_at) / RFU TPSAB1 /// TPSB2 (11721975_s_at) / Fold change /veh TPSAB1 /// TPSB2 (11721975_s_at) / RFU GSTM3 (11746129_a_at) / Fold change /veh GSTM3 (11746129_a_at) / RFU IL23R (11737362_x_at) / Fold change /veh IL23R (11737362_x_at) / RFU TMEM51 (11727254_a_at) / Fold change /veh TMEM51 (11727254_a_at) / RFU PIWIL2 (11732686_x_at) / Fold change /veh PIWIL2 (11732686_x_at) / RFU ORM1 (11744905_x_at) / Fold change /veh ORM1 (11744905_x_at) / RFU CCDC152 (11743942_at) / Fold change /veh CCDC152 (11743942_at) / RFU ECM1 (11717891_a_at) / Fold change /veh ECM1 (11717891_a_at) / RFU IL23R (11748794_a_at) / Fold change /veh IL23R (11748794_a_at) / RFU TNFAIP8L3 (11732012_x_at) / Fold change /veh TNFAIP8L3 (11732012_x_at) / RFU MBOAT4 (11741988_at) / Fold change /veh MBOAT4 (11741988_at) / RFU 11764193_at / Fold change /veh 11764193_at / RFU TMEM53 (11763286_at) / Fold change /veh TMEM53 (11763286_at) / RFU MAGEB2 (11727129_at) / Fold change /veh MAGEB2 (11727129_at) / RFU TMEM200A (11744735_a_at) / Fold change /veh TMEM200A (11744735_a_at) / RFU CCDC152 (11751479_a_at) / Fold change /veh CCDC152 (11751479_a_at) / RFU FAM211A (11726209_a_at) / Fold change /veh FAM211A (11726209_a_at) / RFU RGS16 (11746705_a_at) / Fold change /veh RGS16 (11746705_a_at) / RFU VCAN (11755009_s_at) / Fold change /veh VCAN (11755009_s_at) / RFU RHOB (11743442_s_at) / Fold change /veh RHOB (11743442_s_at) / RFU RGS16 (11720943_a_at) / Fold change /veh RGS16 (11720943_a_at) / RFU RGS16 (11720944_at) / Fold change /veh RGS16 (11720944_at) / RFU, VPS4B / Fold change vs veh, VPS4B / RFU, CREB1 / Fold change vs veh, CREB1 / RFU, DNAJC13 / Fold change vs veh, DNAJC13 / RFU, GNAQ / Fold change vs veh, GNAQ / RFU, CDK5R1 / Fold change vs veh, CDK5R1 / RFU, ZRANB3 / Fold change vs veh, ZRANB3 / RFU, CUL4A / Fold change vs veh, CUL4A / RFU, CCNY / Fold change vs veh, CCNY / RFU, UFL1 / Fold change vs veh, UFL1 / RFU, COG3 / Fold change vs veh, COG3 / RFU, DIAPH2 / Fold change vs veh, DIAPH2 / RFU, SKA2 / Fold change vs veh, SKA2 / RFU, AFF3 / Fold change vs veh, AFF3 / RFU, LMF1 / Fold change vs veh, LMF1 / RFU, IPO11 / Fold change vs veh, IPO11 / RFU, DFFB / Fold change vs veh, DFFB / RFU, FOXP1 / Fold change vs veh, FOXP1 / RFU, CARD8 / Fold change vs veh, CARD8 / RFU, STRN3 / Fold change vs veh, STRN3 / RFU, ADK / Fold change vs veh, ADK / RFU, RASSF2 / Fold change vs veh, RASSF2 / RFU, WIPF1 / Fold change vs veh, WIPF1 / RFU, LARP1B / Fold change vs veh, LARP1B / RFU, RASA1 / Fold change vs veh, RASA1 / RFU, RB1 / Fold change vs veh, RB1 / RFU, PPFIA1 / Fold change vs veh, PPFIA1 / RFU, MAT2A / Fold change vs veh, MAT2A / RFU, CCT5 / Fold change vs veh, CCT5 / RFU, WDR92 / Fold change vs veh, WDR92 / RFU, CUX1 / Fold change vs veh, CUX1 / RFU, TTC7A / Fold change vs veh, TTC7A / RFU, TMEM135 / Fold change vs veh, TMEM135 / RFU, DEPTOR / Fold change vs veh, DEPTOR / RFU, CPM / Fold change vs veh, CPM / RFU, DNAJB6 / Fold change vs veh, DNAJB6 / RFU, CACNA2D3 / Fold change vs veh, CACNA2D3 / RFU, DTX4 / Fold change vs veh, DTX4 / RFU, TFCP2 / Fold change vs veh, TFCP2 / RFU, GMCL1 /// GMCL1P1 / Fold change vs veh, GMCL1 /// GMCL1P1 / RFU, AEBP2 / Fold change vs veh, AEBP2 / RFU, SNHG1 /// SNORD22 /// SNORD25 /// SNORD26 /// SNORD27 /// SNORD28 /// SNORD29 /// SNORD31 / Fold change vs veh, SNHG1 /// SNORD22 /// SNORD25 /// SNORD26 /// SNORD27 /// SNORD28 /// SNORD29 /// SNORD31 / Fold change (Aza/veh), C12orf56 (ProbeSet 11735607_a_at) / Fold change (ACY-1035/veh), C12orf56 (ProbeSet 11735607_a_at) / Fold change (Aza/veh), FGFR1OP (ProbeSet 11751329_s_at) / Fold change (ACY-1035/veh), FGFR1OP (ProbeSet 11751329_s_at) / Fold change (Aza/veh), VPS36 (ProbeSet 11739960_a_at) / Fold change (ACY-1035/veh), VPS36 (ProbeSet 11739960_a_at) / RFU SYPL1 (11715823_x_at) / Fold change /veh SYPL1 (11715823_x_at) / RFU IGFBP7 (11715501_s_at) / Fold change /veh IGFBP7 (11715501_s_at) / RFU REEP3 (11722064_at) / Fold change /veh REEP3 (11722064_at) / RFU IGLL1 (11728026_x_at) / Fold change /veh IGLL1 (11728026_x_at): dose or concentration left out as unconfirmed
Details: ProbeSet 11716999_a_at; LIST D

`Nc1ncn([C@@H]2O[C@H](CO)[C@@H](O)[C@H]2O)c(=O)n1` [azacitidine] was tested, and the “RFU, RASA1” value was 172.86 RFU.
